Reference: US20250197864A1, “LNCRNA TRANSCRIPTS IN MELANOMAGENESIS” (The Regents of the University of California, priority 2021, published 2025)
{Chol} = cholesterol

What was measured:
Assay in all cases: Cell viability assay (ATP quantitation)
D04 melanoma cell line = assay type: cell-based, human; settings: 50 nM, 5 days (120 hrs), vs non-targeting control
Method: (§1) EsiRNA, siRNA and ASO GapmeRs were transfected in a final concentration of 50 nM unless mentioned otherwise and the transfection reagent Lipofectamine 3000 (2 ul/ml) was added according to the manufacturer's instructions.
(§2) Dependent on cell doubling time, 0.7-2×10^^3 cells were seeded in 96 well plates. 1 day after seeding cells were incubated in media with oligonucleotide concentration and/or MEKi and transfection reagent. 3 (synergy experiments) or 5 (solely ASO) days after transfection Total luminescence was measured on the SynergyHT plate reader (BioTek) using Gen5 software.

[1] = test system: Sk-N-AS Neuroblastoma cell line; assay type: cell-based; settings: 50 nM, 5 days, vs non-targeting control
Method: as §1, §2

[2] = test system: Sk-Mel-2 melanoma cell line; assay type: cell-based, human; settings: 50 nM, 5 days (120 hrs), vs non-targeting control
Method: as §1, §2

MM415 melanoma cell line = assay type: cell-based, human; settings: 50 nM, 5 days (120 hrs), vs non-targeting control
Method: as §1, §2

[3] = test system: Sk-Mel-28 melanoma cell line; assay type: cell-based, human; settings: 50 nM, 5 days (120 hrs), vs non-targeting control
Method: as §1, §2

[4] = test system: sarcoma cell line SK-LMS-1; assay type: cell-based; settings: SK-LMS-1 sarcoma; 50 nM, 120 hrs; Lipofectamine3000 2 ul/ml; vs non-targeting control ASO
Method: as §1, §2
(§3) Cell viability was compared to treatment with non-targeting control ASO-treatment. Lipofectamine3000 concentration was 2 ul/ml.

[5] = test system: hepatocellular carcinoma cell line HepG2; assay type: cell-based; settings: 50 nM, 120 hrs, Lipofectamine3000 2 ul/ml, vs non-targeting control ASO
Method: as §1, §2, §3

[6] = test system: MaMel30 melanoma cell line; assay type: cell-based; settings: 50 nM, 5 days, vs non-targeting control
Method: as §1, §2

[7] = test system: WM3629 melanoma cell line; assay type: cell-based, human; settings: 50 nM, 5 days (120 hrs), vs non-targeting control
Method: as §1, §2

[8] = test system: AV5 primary melanoma cell line; assay type: cell-based, human; settings: 50 nM, 5 days (120 hrs), vs non-targeting control
Method: as §1, §2

[9] = test system: WM3211 melanoma cell line; assay type: cell-based, human; settings: 50 nM, 5 days (120 hrs), vs non-targeting control
Method: as §1, §2

VMM39 melanoma cell line = assay type: cell-based, human; settings: 50 nM, 5 days (120 hrs), vs non-targeting control
Method: as §1, §2

[10] = test system: Hs852.T primary melanoma cell line; assay type: cell-based, human; settings: 50 nM, 5 days (120 hrs), vs non-targeting control
Method: as §1, §2

[11] = test system: WM1366 melanoma cell line; assay type: cell-based, human; settings: 50 nM, 5 days (120 hrs), vs non-targeting control
Method: as §1, §2

Measured: cell viability decrease

GGAAAGGCGAGCUGAGCAUUU (antisense AUGCUCAGCUCGCCUUUCCUU; listed as RNA, chemistry not given here) [SEQ ID NO: 37, siRNA targeting ARF-AS1 isoform 1]
significant cell viability decrease: D04 melanoma cell line

GCGTCAACTAAAGCAA (QIAGEN GapmeR, modification pattern not given here) [SEQ ID NO: 20, Antisense oligonucleotide targeting ARF-AS1-202 and ARF-AS1-203]
significant cell viability decrease: [1] | [2] | MM415 melanoma cell line | D04 melanoma cell line | [3]

GACTGGAGATAATTAA-Cholesterol (3' {Chol}, sugars by position and backbone not given here; GapmeR, chemically modified) [SEQ ID NO:47, TRASH targeting ASO with additional Cholesterol modification]
significant cell viability decrease: [4] | [5] | MM415 melanoma cell line | D04 melanoma cell line

ATTGATGAAAGGTGAA (QIAGEN GapmeR, modification pattern not given here) [SEQ ID NO: 19, Antisense oligonucleotide targeting ARF-AS1-201, ARF-AS1-202 and ARF-AS1-203]
significant cell viability decrease: [1] | [6] | [2] | MM415 melanoma cell line | D04 melanoma cell line | [3]

5′-AUUUCAUGUCUGAAGCAAUUCUACT-3′ (chain 2 AAUAAAGUACAGACUUCGUUAAGAUGA; chemistry not given here; one strand is listed 3' to 5') [SEQ ID NO: 44]
significant cell viability decrease: [2] | MM415 melanoma cell line | [7] | D04 melanoma cell line

AGCAAUGACUCCUGAACAUUU (antisense AUGUUCAGGAGUCAUUGCUUU; siRNA; 5' phosphate on antisense strand, other chemistry not given here) [SEQ ID NO: 27, siRNA targeting RP11-7011.3]
significant cell viability decrease: D04 melanoma cell line | [3] | [8]

5′-UCACAAAGAGAGACAGGAAUU-3′ (chain 2 UUCCUGUCUCUCUUUGUGAUU; listed as RNA, chemistry not given here) [SEQ ID NO:46]
significant cell viability decrease: MM415 melanoma cell line | D04 melanoma cell line

5′-GCCAACAGCAUGUCAAUUCAGUGAT-3′ (chain 2 GACGGUUGUCGUACAGUUAAGUCACUA; chemistry not given here; one strand is listed 3' to 5') [SEQ ID NO: 43]
significant cell viability decrease: [2] | [7] | D04 melanoma cell line

CTCATGAGCTGTCGTA (QIAGEN GapmeR, modification pattern not given here) [SEQ ID NO: 41, Antisense oligonucleotide targeting AC004540.4-001 and AC004540.4-002]
not listed: [1] | [6]
significant cell viability decrease: all other assays above

AAGTCCTTGGTTGATG (QIAGEN GapmeR, modification pattern not given here) [SEQ ID NO: 21, Antisense oligonucleotide targeting AL157871.4-201]
significant cell viability decrease: [1] | [2] | MM415 melanoma cell line | D04 melanoma cell line | [3]

UGGAUAAUGAUAAGGUCUAUU (antisense UAGACCUUAUCAUUAUCCAUU; listed as RNA, chemistry not given here) [SEQ ID NO: 39, siRNA targeting AL157871.4-201]
significant cell viability decrease: D04 melanoma cell line

AGATGGCTCTGTAAGA (QIAGEN GapmeR, modification pattern not given here) [SEQ ID NO: 49, Antisense oligonucleotide targeting SNX10]
significant cell viability decrease: D04 melanoma cell line

GTAAGTAGGAGCTGTG (QIAGEN GapmeR, modification pattern not given here) [SEQ ID NO: 22, Antisense oligonucleotide targeting AL157871.4-201]
significant cell viability decrease: [1] | [6] | [2] | MM415 melanoma cell line | D04 melanoma cell line | [3]

GAGUAACAGAGGAGAACUUUU (antisense AAGUUCUCCUCUGUUACUCUU; siRNA; 5' phosphate on antisense strand, other chemistry not given here) [SEQ ID NO: 25, siRNA targeting both isoforms of AC004540.4]
significant cell viability decrease: [8]

5′-GGUAAAAACAUGAAGCUAAUAGUUA-3′ (chain 2 ACCCAUUUUUGUACUUCGAUUAUCAAU; listed as RNA, chemistry not given here; one strand is listed 3' to 5') [SEQ ID NO: 42]
significant cell viability decrease: [2] | MM415 melanoma cell line | D04 melanoma cell line

CCCAGAAGCUAGAGGUAAAUU (antisense UUUACCUCUAGCUUCUGGGUU; listed as RNA, chemistry not given here) [SEQ ID NO: 23, siRNA targeting BX470102.3-008]
significant cell viability decrease: D04 melanoma cell line | [3] | [8]
